A word on the IC50: it is the concentration that gives 50% inhibition.

Results on four molecules are retold here after publication PMC5753767 (Bioorganic & medicinal chemistry letters, 2017).

One data set has as its system P. falciparum Dd2. The class given is cell-based, Plasmodium falciparum. The settings on record: chloroquine-resistant Dd2 strain of P. falciparum.
For the next data set, the system named is HT-29 cancer cell line. The settings on record: cited from earlier work.
The subject of the next data set is Caco-2 cancer cell line. The note with it: cited from earlier work.
The next data set relates to A2780 ovarian cells. The experiment in a line: Antiproliferative activity against A2780 ovarian cells. In kind it is cell-based.

“Also recorded” adds a separate entry of the source.

Take `COC1=CC(=O)[C@@]23CCN(Cc4c2cc2c(c4OC)OCO2)[C@@H]3C1` [Compound 2, distichamine]: in the data set with P. falciparum Dd2, the “Antiplasmodial activity (in words)” value is given as “little inhibitory activity”.
Regarding `COc1c2c(cc3c1OCO3)[C@]13C=C[C@H](OC)C[C@H]1[N@](C2)C[C@H]3OC(C)=O` [Compound 3, 11-O-acetylambelline], in the data set on HT-29 cancer cell line, the “Cytotoxicity IC50 HT-29” value was “inactive”. Moreover, the “Cytotoxicity IC50 Caco-2” value with Caco-2 cancer cell line is “inactive”.
In the case of `COc1c2c(cc3c1OCO3)[C@]13C=C[C@H](OC)C[C@H]1[N@](C2)C[C@H]3O` [Compound 4, ambelline], in the data set on A2780 ovarian cells, the “Activity against human A2780 cells (in words)” value is on record as “lack of activity”. In addition, the “Antiplasmodial activity (in words)” value in the data set on P. falciparum Dd2 was “moderate to good antiplasmodial activity”.
In the case of `CC(=O)O[C@@H]1CC=C2CCN3Cc4cc5c(cc4[C@H]1[C@@H]23)OCO5` [Compound 5, acetylcaranine], the IC50 is 19.2 µM in the data set on HT-29 cancer cell line (read-out: Cytotoxicity IC50 HT-29, HT-29 cancer cell line) and 29.5 µM with Caco-2 cancer cell line (read-out: Cytotoxicity IC50 Caco-2, Caco-2 cancer cell line). Besides, the “Activity against human A2780 cells (in words)” value with A2780 ovarian cells is “lack of activity”. The “Antiplasmodial activity (in words)” value with P. falciparum Dd2 was “strong antiplasmodial activity; also recorded: moderate to good antiplasmodial activity”.
